Experimental data as given in US9867798B2, “Ladostigil therapy for immunomodulation” (priority 2012, dated 2018).

Key:
ChE = test: Cholinesterase inhibition in plasma and spleen of LPS injected mice (Example 5); format: in vivo, Balb-C mice; settings: 120 min after oral administration; for Inhibition of ChE, plasma / Inhibition of ChE, spleen: LPS injected mice
Protocol: (§1) In experiments on the effect of chronic treatment with ladostigil on ChE activity in mice drinking DSS, the spleen was rapidly removed as described above, together with a colon segment of about 0.5 cm in length taken from the proximal area. Spleen and colon segments were washed in cold phosphate buffered saline (PBS) before they were frozen at −80° C. For assay, the tissue was unfrozen and weighed and PBS was added to each tissue at a ratio of 1 mg tissue to 1 ml. Tissues were homogenized at a speed of 24,000 rpm in cold phosphate buffer pH 7 containing 0.1% Triton and centrifuged at 14000 rpm. Aliquots of plasma and the supernatant from the spleen and colon were incubated with acetylthiocholine and dinitro benzoic acid in phosphate buffer pH 7 and the rate of development of the yellow color was measured as described by Ellman et al, (1961). Percent inhibition of ChE activity was calculated by comparison with that of control mice given water by gavage. Protein concentration was determined by means of by Pierce BCA Protein Assay Kit (Thermo Scientific, USA) according to the manufacturer's instructions. It is noted, that ChE activity in the colon and spleen of mice is attributed mainly to that of AChE while that in mouse plasma is mainly attributable to BuChE.
For the LPS experiment involving a single administration, ladostigil (10 or 20 mg/kg) in a volume of 1 ml/100 g or water (1 ml/100 g) were given by gavage to groups of 6-8 Balb-C male mice weighing 24-30 g and LPS as described above. […] Blood was taken into heparinized tubes and centrifuged at 14000 rpm at room temperature for 4 min to provide plasma and the spleen was rapidly removed, weighed, frozen in liquid nitrogen and stored at −80° C. until assayed. It is noted, that ChE inhibition in mouse plasma is mainly attributed to BuChE activity, and in mouse spleen—mainly to AChE activity.
Percent inhibition of ChE activity was calculated by comparison with that of control mice given water by gavage as described in Example 1 above.

[1] = system: mice with DSS-induced colitis; test: Acute colitis induced by DSS in mice: body weight, stool, bleeding, DAI, colon length; format: in vivo, BALB/c OlaHsd mice
Protocol: (§2) BALB/c OlaHsd male mice aged 8-9 weeks and weighing 25-30 g were purchased from Harlan (Jerusalem, Israel) and housed in standard cages of up to 5 per cage in the pathogen free Animal Facility of the Institute for Drug Research. All experiments were performed in accordance with the Principles of Laboratory Animal Care (NIH publication #85-23, revised 1985) protocols MD-09-12197-4. Acute colitis was induced in mice by administration of 5% DSS solution (M.Wt.=[…], MP Biomedicals, LLC, Solon, Ohio, USA) in water for 8 days. The DSS solution was freshly prepared every day. Mice were provided with food and water or DSS solution ad libitum during the experiment. They were divided into groups of 10 as follows: Vehicle control group: mice drank water and were given water (1 ml/100 gm) once daily by gavage for 8 days; Drug control group: mice drank water and were given ladostigil (10 mg/kg) by gavage once daily for 8 days. DSS untreated group: mice drank 5% DSS for 7 days and water on the 8th day and were given water (1 ml/100 g) once daily by gavage for 8 days. Drug treated group: mice drank 5% DSS followed by water as above and were given ladostigil (5 or 10 mg/kg) by gavage once daily for 8 days. The volume of 5% DSS solution consumed was measured for each group of mice and the average volume/mouse was calculated. On the eighth day, the mice were anesthetized by CO2 and sacrificed by cervical dislocation 2 h after the last dose of ladostigil. Samples of colon and spleen were taken for measurement of cytokines MPO, cytokines and ChE activity.
Body weight, stool consistency and the presence of blood in the stools was recorded daily for each mouse. […] The score ranged between 0-4 for all three parameters and was composed as follows: Weight loss: none=0, 1-5%=1, 5-10%=2, 10-20%=3, >20%=4. Percent of weight loss on days 7 and 8 relative to the first day was calculated for all the groups. […] Bleeding: none=0, hemoccult=2, gross bleeding=4. The maximum DAI score was 4 based on a combination of scores of weight loss (relative to that on the first day of the experiment), stool consistency and bleeding, divided by 3. After sacrifice the length of the colon segment from the cecum to the rectum was measured.

[2] = system: LPS-induced TNF-α, IL-1β and IL-6 in spleen; test: Cytokines in spleen of mice injected with LPS (Example 4); format: in vivo, Balb/c mice
Protocol: Male Balb/c mice (aged 6-7 weeks, weighing 25-30 gm) were given ladostigil 10 mg/kg by gavage or 1 ml/kg saline followed 15 min later by an intra-peritoneal (i.p.) injection of LPS (10 mg/kg). For measurement of cytokine levels in the spleen and blood the mice were sacrificed 4 h after drug administration, blood collected in heparinized tubes and centrifuged to obtain plasma and the spleen was rapidly removed and weighed. Plasma and spleen were frozen in liquid nitrogen and stored at −80° C. until use.
For measurement of cytokine levels the tissue was diluted in PBS containing 0.8% NaCl, 0.144% NaHPO4, 0.024% KH2PO4 and protease inhibitor cocktail (Sigma Israel, P8340) and homogenized in an Ultra-TURRAX® homogenizer at a speed of 24,000 rpm, centrifuged at 14000 g for 15 min at 4° C. Cytokines were detected in the supernatant by using ELISA kits for cytokines IL-1β, IL-6, and TNF-α(Biolegend) following the manufacturer's protocol. Each experiment was performed 4 times with 6 replicate measures in each experiment. Protein concentration in each sample was determined with Bradford reagent (Bio-RAD, 500-0006).

[3] = system: cholinesterase (AChE and BuChE); test: Cholinesterase activity in spleen and colon of mice drinking DSS (Ellman); format: in vivo; settings: for ChE activity colon / ChE activity spleen: DSS 5%, 8 days
Protocol: as §2, §1

[4] = 10 mg/kg by gavage + LPS 10 mg/kg i.p., four hours

SMILES: C#CCN[C@@H]1CCc2ccc(OC(=O)N(C)CC)cc21 [Ladostigil, R(+)-6-(N-methyl, N-ethyl-carbamoyloxy)-N′-propargyl-1-aminoindan]
- Inhibition of ChE activity in plasma or spleen (ChE; ladostigil 10 mg/kg): did not significantly inhibit ChE activity
- Inhibition of ChE, plasma (ChE; ladostigil 10 mg/kg): 7.8 ± 2.4%
- Inhibition of ChE, spleen (ChE; ladostigil 10 mg/kg): 15.1 ± 3.6%
- Inhibition of ChE, plasma (ChE; ladostigil 20 mg/kg): 27.4±5.9%
- Inhibition of ChE, spleen (ChE; ladostigil 20 mg/kg): 28.1 ± 1.9 %
- Decrease in colon length and signs of hyperemia and inflammation ([1]; 5% DSS, 5 and 10 mg/kg, untreated decrease >30%): significantly less
- Reduction of DSS-induced weight loss ([1]; 5% DSS, both doses (5 and 10 mg/kg), untreated loss 15%): ~50%
- Diarrhea ([1]; 5% DSS, day 7, both doses (5 and 10 mg/kg)): significantly decreased
- Bleeding ([1]; 5% DSS, day 8, 5 mg/kg): significantly decreased
- Disease activity index (DAI) ([1]; 5% DSS, days 7 and 8, drug treated groups vs DSS-water, p<0.01): significantly different from that of the group drinking DSS given water
- Body weight increase during 8 days ([1]; mice receiving 5 or 10 mg/kg by gavage, no DSS): 2-3%
- Reduction of IL-1β levels in spleen ([2]; 10 mg/kg + LPS, Example 4): 28.1%
- Reduction of IL-6 levels in spleen ([2]; 10 mg/kg + LPS, Example 4): 46.7%
- Reduction of TNF-α levels in spleen ([2]; 10 mg/kg + LPS, Example 4): 49.6%
- IL-1β in spleen [2, 4]: 1.37 ± 0.04 ng/mg protein
- IL-6 in spleen [2, 4]: 179 ± 20 pg/mg protein
- TNF-α in spleen [2, 4]: 8.3 ± 0.9 pg/mg protein
- Reduction of elevation of pro-inflammatory cytokines in the spleen ([2]; oral dose prior to LPS, Example 4 conclusion): 28-50%
- Inhibition of ChE in the colon ([3]; 5 or 10 mg/kg): Neither dose of ladostigil caused any significant inhibition
- ChE activity colon ([3]; 5 mg/kg orally once daily): 18.5 ± 1.4 μmoles of acetylthiocholine hydrolyzed/min/mg protein
- ChE activity spleen ([3]; 5 mg/kg orally once daily): 10.8 ± 0.6 μmoles of acetylthiocholine hydrolyzed/min/mg protein
- ChE activity colon ([3]; 10 mg/kg orally once daily): 16.7 ± 1.2 μmoles of acetylthiocholine hydrolyzed/min/mg protein
- ChE activity spleen ([3]; 10 mg/kg orally once daily): 10.2 ± 0.7 μmoles of acetylthiocholine hydrolyzed/min/mg protein
